# Experimental data taken from US20120171123A1, “USES AND COMPOSITIONS FOR TREATMENT OF RHEUMATOID ARTHRITIS” (priority 2006, published 2012).
# Legend:
# [1] = tested on: MTX-naïve adult patients with early RA (<3 years); assay: Study J: SF-36 (domains, PCS, MCS) with criteria- and content-based interpretation; assay type: in vivo, human; parameters: key to mean SF-36 PCS score / SF-36 Role-Physical score / SF-36 Bodily Pain score / SF-36 General Health score / SF-36 Vitality score / SF-36 Social Functioning score / SF-36 Role-Emotional score / SF-36 Mental Health score / SF-36 PCS score / SF-36 MCS score / SF-36 Physical Functioning score: scale 0-100, higher = better health-related quality of life; details: for SF-36 Bodily Pain score / SF-36 General Health score / SF-36 MCS score / SF-36 Mental Health score / SF-36 PCS score / SF-36 Physical Functioning score / SF-36 Role-Emotional score / SF-36 Role-Physical score / SF-36 Social Functioning score / SF-36 Vitality score: LOCF
# Source text: Study J was a 2-year, double-blind, active comparator-controlled, Phase III study conducted at many sites worldwide.
# The SF-36 was used to assess the 8 domains of HRQOL—physical functioning, role-physical, bodily pain, general health, vitality, social functioning, role-emotional, and mental health. These 8 domains were aggregated into Physical Component Summary (PCS) and Mental Component Summary (MCS) scores. The SF-36 has a scale of 0-100, with higher scores indicating better health-related quality of life.
# Minimum clinically important differences (MCID) are defined as improvements of 5-10 points in the individual domains scores and 2.5-5 points in the PCS and MCS^5.
# All HRQOL domains were measured at baseline, and after 12, 26, 42, 52, 76, and 104 weeks of therapy. In this analysis, mean scores and mean changes in each HRQOL domain are reported, as well as the PCS and MCS, at Weeks 12 and 104. Criteria-based interpretation was used to understand the meaning of differences in PCS scores for work loss and resource use and content-based interpretation for specific SF-36 items.^4
# Study J was a 2-year, double-blind, active comparator-controlled, Phase III study conducted at 149 sites in North America, Europe, and Australia. […] The SF-36 was used to assess the 8 domains of HRQOL—physical functioning, role-physical, bodily pain, general health, vitality, social functioning, role-emotional, and mental health. These 8 domains were aggregated into Physical Component Summary (PCS) and Mental Component Summary (MCS) scores. The SF-36 has a scale of 0-100, with higher scores indicating better health-related quality of life. Minimum clinically important differences (MCID) are defined as improvements of 5-10 points in the individual domains scores and 2.5-5 points in the PCS and MCS (Kosinski M, et al. Arthritis Rheum 2000:43:1478-87). All HRQOL domains were measured at baseline, and after 12, 26, 42, 52, 76, and 104 weeks of therapy. In this analysis, we report mean scores and mean changes in each HRQOL domain, as well as the PCS and MCS, at Weeks 12 and 104. We used criteria-based interpretation to understand the meaning of differences in PCS scores for work loss and resource use and content-based interpretation for specific SF-36 items (Weinblatt M E, et al. Arthritis Rheum 2003; 48:35-45).
# [2] = tested on: patients with RA who had failed prior treatment with infliximab; assay: Adalimumab after failed infliximab: HAQ; assay type: in vivo, human
# Source text: Patients eligible to participate in the study included those with long-standing, moderate to severe RA who had terminated infliximab therapy because of lack or loss of efficacy and/or intolerance/side effects. […] Follow-up visits for safety and efficacy monitoring were scheduled at 2, 8, and 16 weeks. […] Efficacy parameters included TJC28 and SJC28; DAS28; ACR20, ACR50 Response; Moderate EULAR response; and HAQ. Subgroup analysis by reason for discontinuation included: • in case of discontinuation due to lack or loss of efficacy, patients were counted in the corresponding group regardless of additional cause of intolerance. • The subgroup “Discontinuation due to intolerance” was exclusive.
# [3] = tested on: patients with long-standing RA who had inadequate responses to MTX; assay: Study 1: serious adverse events
# Protocol: Periodic ACR component evaluations were also performed throughout the study. Outcome measures included the following: Total Sharp Score (TSS), including joint erosions (JE) and joint space narrowing (JSN); ACR20, ACR50, and ACR70 response rates; and individual components of ACR responses criteria, including swollen joint count (SJC) and tender joint count (TJC). Efficacy and safety evaluations were conducted at regularly scheduled visits.
# [4] = tested on: patients with long-standing RA; assay: Study 4: HAQ disability index; assay type: in vivo, human
# Protocol: Efficacy outcomes were evaluated as observed data: DAS28; ACR 20/50/70; Tender Joint Count (TJC); Swollen Joint Count (SJC); and HAQ Disability Index. Baseline demographics and disease characteristics were similar in both Study 4 and Study 5 consistent with moderate to severe RA, as shown below in Table 64: […]
# [5] = Baseline, percentages based on general US population norms
# [6] = Week 104, percentages based on general US population norms
# [7] = blinded-controlled and OLE periods
compound,measurement,setting,value
"CN(Cc1cnc2nc(N)nc(N)c2n1)c1ccc(C(=O)N[C@@H](CCC(=O)O)C(=O)O)cc1 [mtx alone, methotrexate]",SF-36 Bodily Pain score,[1]; Baseline,29.9
same,SF-36 General Health score,[1]; Baseline,49.7
same,SF-36 MCS score,[1]; Baseline,43.5
same,SF-36 Mental Health score,[1]; Baseline,62.1
same,SF-36 PCS score,[1]; Baseline,32.2
same,SF-36 Physical Functioning score,[1]; Baseline,38.9
same,SF-36 Role-Emotional score,[1]; Baseline,41.1
same,SF-36 Role-Physical score,[1]; Baseline,16.4
same,SF-36 Social Functioning score,[1]; Baseline,56.5
same,SF-36 Vitality score,[1]; Baseline,37.1
same,"Interpretation of SF-36 PCS, Content-Based: Climb stairs",[1]; [5],66.4%
same,"Interpretation of SF-36 PCS, Content-Based: Difficulty working",[1]; [5],88.1%
same,"Interpretation of SF-36 PCS, Content-Based: Have energy",[1]; [5],9.7%
same,"Interpretation of SF-36 PCS, Content-Based: Time off work",[1]; [5],64.8%
same,"Interpretation of SF-36 PCS, Content-Based: Walk on block",[1]; [5],44.4%
same,"Interpretation of SF-36 PCS, criteria-based: Hospitalized",[1]; [5],10.7%
same,"Interpretation of SF-36 PCS, criteria-based: Job loss",[1]; [5],30.3%
same,"Interpretation of SF-36 PCS, criteria-based: MD visit",[1]; [5],47.7%
same,"Interpretation of SF-36 PCS, criteria-based: Not work",[1]; [5],44.1%
same,SF-36 Bodily Pain score,[1]; Week 12,51.0
same,SF-36 General Health score,[1]; Week 12,58.9
same,SF-36 MCS score,[1]; Week 12,49.0
same,SF-36 Mental Health score,[1]; Week 12,71.2
same,SF-36 PCS score,[1]; Week 12,38.3
same,SF-36 Physical Functioning score,[1]; Week 12,51.1
same,SF-36 Role-Emotional score,[1]; Week 12,60.5
same,SF-36 Role-Physical score,[1]; Week 12,40.4
same,SF-36 Social Functioning score,[1]; Week 12,72.0
same,SF-36 Vitality score,[1]; Week 12,51.6
same,SF-36 Bodily Pain score,[1]; Week 104,57.0
same,SF-36 General Health score,[1]; Week 104,68.3
same,SF-36 MCS score,[1]; Week 104,49.9
same,SF-36 Mental Health score,[1]; Week 104,72.9
same,SF-36 PCS score,[1]; Week 104,41.2
same,SF-36 Physical Functioning score,[1]; Week 104,58.9
same,SF-36 Role-Emotional score,[1]; Week 104,64.5
same,SF-36 Role-Physical score,[1]; Week 104,48.6
same,SF-36 Social Functioning score,[1]; Week 104,75.5
same,SF-36 Vitality score,[1]; Week 104,56.9
same,"Interpretation of SF-36 PCS, Content-Based: Climb stairs",[1]; [6],30.7%
same,"Interpretation of SF-36 PCS, Content-Based: Difficulty working",[1]; [6],51.2%
same,"Interpretation of SF-36 PCS, Content-Based: Have energy",[1]; [6],26.6%
same,"Interpretation of SF-36 PCS, Content-Based: Time off work",[1]; [6],29.8%
same,"Interpretation of SF-36 PCS, Content-Based: Walk on block",[1]; [6],21.4%
same,"Interpretation of SF-36 PCS, content-based: Climb stairs",[1]; [6],30.7%
same,"Interpretation of SF-36 PCS, content-based: Difficulty working",[1]; [6],61.2%
same,"Interpretation of SF-36 PCS, content-based: Have energy",[1]; [6],26.6%
same,"Interpretation of SF-36 PCS, content-based: Time off work",[1]; [6],29.8%
same,"Interpretation of SF-36 PCS, content-based: Walk on block",[1]; [6],21.4%
same,"Interpretation of SF-36 PCS, criteria-based: Hospitalized",[1]; [6],7.7%
same,"Interpretation of SF-36 PCS, criteria-based: Job loss",[1]; [6],20.8%
same,"Interpretation of SF-36 PCS, criteria-based: MD visit",[1]; [6],34.6%
same,"Interpretation of SF-36 PCS, criteria-based: Not work",[1]; [6],24.2%
same,mean SF-36 PCS score,"[1]; week 12 (baseline 31.7 combination, 32.2 MTX)",38.3
"adalimumab: human anti-TNF mAb (HUMIRA, Abbott Laboratories), described in U.S. Pat. No. 6,090,382 as D2E7",change in HAQ,"[2]; week 16, all (n=37)",−0.25
same,change in HAQ,"[2]; week 16, infliximab stopped for intolerance (n=5)",−0.15
same,change in HAQ,"[2]; week 16, infliximab stopped for loss of response (n=19)",−0.36
same,change in HAQ,"[2]; week 16, infliximab stopped for no response (n=13)",−0.23
same,Demyelinating disease,[3]; [7],0.2 events/100-PY
same,Histoplamosis,[3]; [7],0.2 events/100-PY
same,Tuberculosis,[3]; [7],0.2 events/100-PY
same,Demyelinating disease,[3]; blinded-controlled period,0.3 events/100-PY
same,Histoplamosis,[3]; blinded-controlled period,0.3 events/100-PY
same,Tuberculosis,[3]; blinded-controlled period,0.3 events/100-PY
same,Lymphoma,[3]; in vivo,0.3 events/100-PY
same,Urinary tract infections,[3]; in vivo,0.3 events/100-PY
same,"HAQ, % change of mean clinical improvement from baseline",[4]; 6 months,45%
same,"HAQ, % change of mean clinical improvement from baseline",[4]; 12 months,43%
same,"HAQ, % change of mean clinical improvement from baseline",[4]; 24 months,47%
same,"HAQ, % change of mean clinical improvement from baseline",[4]; 36 months,47%
same,"HAQ, % change of mean clinical improvement from baseline",[4]; 48 months,50%
